Results reported in PMC3508077 (Bioorganic & medicinal chemistry, 2012).

Assays:
[1] = tested on: NAD(P)H:quinone reductase 1 (QR1); settings: for Inducer class (monofunctional / bifunctional): from QR1 induction in Taoc1BP^rc1 and BP^rc1 mutants; for QR1 induction activity in the mutant cell lines (in words): Taoc1BP^rc1 and BP^rc1 mutant cell lines
[2] = molecular target: T1, human aromatase (CYP19 enzyme) (Homo sapiens, UniProt P11511); settings: read-out: Aromatase IC50
T1 sequence (P11511 1-503): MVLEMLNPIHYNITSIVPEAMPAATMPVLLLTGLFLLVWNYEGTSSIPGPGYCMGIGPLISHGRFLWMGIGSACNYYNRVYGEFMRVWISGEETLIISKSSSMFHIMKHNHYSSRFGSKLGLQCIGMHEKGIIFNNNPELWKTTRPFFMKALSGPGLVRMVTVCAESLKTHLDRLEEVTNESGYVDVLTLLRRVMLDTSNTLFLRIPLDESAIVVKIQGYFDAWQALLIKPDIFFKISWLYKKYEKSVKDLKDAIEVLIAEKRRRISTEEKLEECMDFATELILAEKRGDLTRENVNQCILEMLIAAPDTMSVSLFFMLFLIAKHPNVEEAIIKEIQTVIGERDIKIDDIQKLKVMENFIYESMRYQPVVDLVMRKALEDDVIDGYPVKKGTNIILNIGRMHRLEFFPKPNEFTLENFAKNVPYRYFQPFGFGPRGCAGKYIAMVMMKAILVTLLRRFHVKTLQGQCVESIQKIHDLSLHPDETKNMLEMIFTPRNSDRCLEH

[3] = tested on: NAD(P)H:quinone reductase 1 (QR1); settings: cited from earlier work
[4] = tested on: NAD(P)H:quinone reductase 1 (QR1); experiment: cells; settings: Mus musculus, 48 h, read-out: CD (concentration that doubles the activity)
[5] = molecular target: T1, human aromatase (CYP19 enzyme); settings: cited from earlier work
NF-κB [6] = settings: cited from earlier work
[7] = tested on: NAD(P)H:quinone reductase 1 (QR1); experiment: QR1 induction assay in Hepa 1c1c7 murine hepatoma cells; type: cell-based; settings: Hepa 1c1c7 cells
NF-κB [8] = tested on: NF-κB
[9] = tested on: inducible nitric oxide synthase (iNOS)

Structure (SMILES): O=c1cc(-c2ccc(Br)cc2)oc2ccccc12 [4′-Bromoflavone, reference compound]
- Inducer class (monofunctional / bifunctional) [1]: bifunctional

Structure (SMILES): c1ccc(-c2nsc(-c3ccccc3)n2)cc1 [Compound 2, 3,5-Diphenyl-1,2,4-thiadiazole]
- IC50 [2]: 32.7 ± 3.8 µM
- CD value compared with resveratrol (times lower) [3]: 10 times
- EC (2-fold QR1 activity) [4]: > 50 µM
- Activity as an aromatase inhibitor (in words) [5]: weak
- Activity as an inhibitor of NF-κB (in words) (NF-κB [6]): weak

Structure (SMILES): Fc1ccccc1-c1nsc(-c2ccccc2F)n1 [Compound 3, 3,5-bis(2-fluorophenyl)-1,2,4-thiadiazole]
- CD (concentration that doubles QR1 activity) [3]: 1.8 µM
- IR (QR1 induction ratio) [3]: 10.5
- EC (2-fold QR1 activity) [4]: 29.4 ± 1.3 µM

Structure (SMILES): Fc1ccccc1-c1nsc(-c2ccccc2)n1 [Compound 6b, 3-(2-Fluorophenyl)-5-phenyl-1,2,4-thiadiazole]
- EC (2-fold QR1 activity) [4]: > 50 µM

Structure (SMILES): FC(F)(F)c1ccccc1-c1nc(-c2ccccc2)cs1 [Compound 9a, 4-Phenyl-2-[2-(trifluoromethyl)phenyl]thiazole]
- QR1 induction activity (in words) [7]: inactive
- EC (2-fold QR1 activity) [4]: > 50 µM

Structure (SMILES): Clc1cccc(-c2nc(-c3ccccc3)cs2)c1Cl [Compound 9c, 2-(2,3-Dichlorophenyl)-4-phenylthiazole]
- QR1 induction activity in the mutant cell lines (in words) [1]: active

Structure (SMILES): Brc1cccc(-c2nc(-c3ccccc3)cs2)c1 [Compound 9d, 2-(3-Bromophenyl)-4-phenylthiazole]
- EC (2-fold QR1 activity) [4]: > 50 µM

Structure (SMILES): COc1cccc(-c2nc(-c3ccccc3)cs2)c1 [Compound 9e, 2-(3-Methoxyphenyl)-4-phenylthiazole]
- QR1 induction activity in the mutant cell lines (in words) [1]: not active
- NF-κB inhibitory activity (in words) (NF-κB [8]): low micromolar
- Inhibitory activity vs. iNOS (in words) [9]: weak
- EC (2-fold QR1 activity) [4]: > 50 µM

Structure (SMILES): Cc1c(Cl)cccc1-c1nc(-c2ccccc2)cs1 [Compound 9f, 2-(3-Chloro-2-methylphenyl)-4-phenylthiazole]
- EC (2-fold QR1 activity) [4]: > 50 µM

Structure (SMILES): Clc1ccc(Cl)c(-c2nc(-c3ccccc3)cs2)c1 [Compound 9g, 2-(2,5-Dichlorophenyl)-4-phenylthiazole]
- QR1 induction activity in the mutant cell lines (in words) [1]: active

Structure (SMILES): Cc1ccc(Cl)cc1-c1nc(-c2ccccc2)cs1 [Compound 9h, 2-(5-Chloro-2-methylphenyl)-4-phenylthiazole]
- Inducer class (monofunctional / bifunctional) [1]: monofunctional

Structure (SMILES): Clc1cccc(Cl)c1-c1nc(-c2ccccc2)cs1 [Compound 9i, 2-(2,6-Dichlorophenyl)-4-phenylthiazole]
- EC (2-fold QR1 activity) [4]: > 50 µM

Structure (SMILES): Cc1cc(Cl)ccc1-c1nc(-c2ccccc2)cs1 [Compound 9j, 2-(4-Chloro-2-methylphenyl)-4-phenylthiazole]
- Inducer class (monofunctional / bifunctional) [1]: monofunctional

Structure (SMILES): Cc1ccc(-c2nc(-c3ccccc3)cs2)c(Br)c1 [Compound 9l, 2-(2-Bromo-4-methylphenyl)-4-phenylthiazole]
- EC (2-fold QR1 activity) [4]: > 50 µM

Structure (SMILES): CCCCc1ccc(-c2nc(-c3ccccc3)cs2)cc1 [Compound 9m, 2-(4-n-Butylphenyl)-4-phenylthiazole]
- EC (2-fold QR1 activity) [4]: > 50 µM

Structure (SMILES): COc1cccc(-c2csc(-c3ccccc3)n2)c1 [Compound 9n, 4-(3-Methoxyphenyl)-2-phenylthiazole]
- QR1 induction activity in the mutant cell lines (in words) [1]: not active
- NF-κB inhibitory activity (in words) (NF-κB [8]): weak
- Inhibitory activity vs. iNOS (in words) [9]: weak

Structure (SMILES): COc1cccc(-c2csc(-c3cccc(OC)c3)n2)c1 [Compound 9o]
- CD value compared with that of resveratrol (times better) [7]: 241 times
- QR1 induction activity in the mutant cell lines (in words) [1]: not active
- NF-κB inhibitory activity (in words) (NF-κB [8]): weak

Structure (SMILES): COc1cccc(-c2csc(-c3cccc(Cl)c3C)n2)c1 [Compound 9p, 2-(3-Chloro-2-methylphenyl)-4-(3-methoxyphenyl)thiazole]
- EC (2-fold QR1 activity) [4]: > 50 µM

Structure (SMILES): COc1cccc(-c2csc(-c3cccc(Cl)c3Cl)n2)c1 [Compound 9q, 2-(2,3-Dichlorophenyl)-4-(3-methoxyphenyl)thiazole]
- QR1 induction activity in the mutant cell lines (in words) [1]: did not display activity
- EC (2-fold QR1 activity) [4]: > 50 µM

Structure (SMILES): COc1cccc(-c2csc(-c3cccc(F)c3F)n2)c1 [Compound 9r, 2-(2,3-Difluorophenyl)-4-(3-methoxyphenyl)thiazole]
- EC (2-fold QR1 activity) [4]: > 50 µM

Structure (SMILES): COc1cccc(-c2csc(-c3ccc(C)cc3Br)n2)c1 [Compound 9t, 2-(2-Bromo-4-methylphenyl)-4-(3-methoxyphenyl)thiazole]
- EC (2-fold QR1 activity) [4]: > 50 µM

Structure (SMILES): COc1cccc(-c2csc(-c3cc(Cl)ccc3C)n2)c1 [Compound 9u, 2-(5-Chloro-2-methylphenyl)-4-(3-methoxyphenyl)thiazole]
- Inducer class (monofunctional / bifunctional) [1]: monofunctional

Structure (SMILES): CCCCc1ccc(-c2nc(-c3cccc(OC)c3)cs2)cc1 [Compound 9v, 2-(4-n-Butylphenyl)-4-(3-methoxyphenyl)thiazole]
- EC (2-fold QR1 activity) [4]: > 50 µM

Structure (SMILES): COc1cccc(-c2csc(-c3cccc(Br)c3)n2)c1 [Compound 9w, 2-(3-Bromophenyl)-4-(3-methoxyphenyl)thiazole]
- EC (2-fold QR1 activity) [4]: > 50 µM

Structure (SMILES): COc1cccc(-c2csc(-c3cccc(OC)c3F)n2)c1 [Compound 13a, 2-(2-Fluoro-3-methoxyphenyl)-4-(3-methoxyphenyl)thiazole]
- QR1 induction activity (in words) [7]: inactive
- EC (2-fold QR1 activity) [4]: > 50 µM

Structure (SMILES): COc1cccc(-c2csc(-c3cc(OC)ccc3F)n2)c1 [Compound 13b, 2-(2-Fluoro-5-methoxyphenyl)-4-(3-methoxyphenyl)thiazole]
- QR1 induction activity (in words) [7]: inactive
- EC (2-fold QR1 activity) [4]: > 50 µM

Structure (SMILES): COc1cccc(-c2noc(-c3cccc(OC)c3)n2)c1 [Compound 15]
- EC (2-fold QR1 activity) [4]: > 50 µM

Structure (SMILES): COc1cccc(-c2nsc(-c3cccc(OC)c3)n2)c1 [Compound 16]
- EC (2-fold QR1 activity) [4]: > 50 µM
